Reference: US20210122739A1, “NOVEL SULFONAMIDE CARBOXAMIDE COMPOUNDS” (Inflazome Limited, priority 2017, published 2021)

Molecular target: NLRP3 (Homo sapiens, UniProt Q96P20)
Experiment: THP-1 cells pyroptosis assay
Assay type: cell-based
Parameters: Seed THP-1 cells (25,000 cells/well) containing 1.0 μg/ml LPS; host or cells: THP-1 cells, LPS-primed, nigericin-stimulated
Settings: 1.0 μg/ml LPS, nigericin 5 μM, resazurin readout
Text: It is well established that the activation of NLRP3 leads to cell pyroptosis and this feature plays an important part in the manifestation of clinical disease (Yan-gang Liu et al., Cell Death & Disease, 2017, 8(2), e2579; Alexander Wree et al., Hepatology, 2014, 59(3), 898-910; Alex Baldwin et al., Journal of Medicinal Chemistry, 2016, 59(5), 1691-1710; Ema Ozaki et al., Journal of Inflammation Research, 2015, 8, 15-27; Zhen Xie & Gang Zhao, Neuroimmunology Neuroinflammation, 2014, 1(2), 60-65; Mattia Cocco et al., Journal of Medicinal Chemistry, 2014, 57(24), 10366-10382; T. Satoh et al., Cell Death & Disease, 2013, 4, e644). Therefore, it is anticipated that inhibitors of NLRP3 will block pyroptosis, as well as the release of pro-inflammatory cytokines (e.g. IL-1β) from the cell.
THP-1 cells (ATCC #TIB-202) were grown in RPMI containing L-glutamine (Gibco #11835) supplemented with 1 mM sodium pyruvate (Sigma #S8636) and penicillin (100 units/ml)/streptomycin (0.1 mg/ml) (Sigma #P4333) in 10% Fetal Bovine Serum (FBS) (Sigma #F0804). The cells were routinely passaged and grown to confluency (˜10^6 cells/ml). On the day of the experiment, THP-1 cells were harvested and resuspended into RPMI medium (without FBS). The cells were then counted and viability (>90%) checked by Trypan blue (Sigma #T8154). Appropriate dilutions were made to give a concentration of 625,000 cells/ml. To this diluted cell solution was added LPS (Sigma #L4524) to give a 1 μg/ml Final Assay Concentration (FAC). 40 μl of the final preparation was aliquoted into each well of a 96-well plate. The plate thus prepared was used for compound screening.
The following method step-by-step assay was followed for compound screening. • 1. Seed THP-1 cells (25,000 cells/well) containing 1.0 μg/ml LPS in 40 μl of RPMI medium (without FBS) in 96-well, black walled, clear bottom cell culture plates coated with poly-D-lysine (VWR #734-0317) • 2. Add […] compound (8 points half-log dilution, with 10 μM top dose) or vehicle (DMSO 0.1% FAC) to the appropriate wells • 3. Incubate for 3 hrs at 37° C. in 5% CO2 • 4. Add 5 μl nigericin (Sigma #N7143) (FAC 5 μM) to all wells • 5. Incubate for 1 hr at 37° C. and 5% CO2 • 6. At the end of the incubation period, spin plates at 300×g for 3 mins and remove supernatant • 7. Then add 50 μl of resazurin (Sigma #R7017) (FAC 100 μM resazurin in RPMI medium without FBS) and incubate plates for a further 1-2 hrs at 37° C. and 5% CO2 • 8. Plates were read in an Envision reader at Ex 560 nm and Em 590 nm • 9. IC50 data is fitted to a non-linear regression equation (log inhibitor vs response-variable slope 4-parameters)

Chain of NLRP3 (Q96P20 whole entry): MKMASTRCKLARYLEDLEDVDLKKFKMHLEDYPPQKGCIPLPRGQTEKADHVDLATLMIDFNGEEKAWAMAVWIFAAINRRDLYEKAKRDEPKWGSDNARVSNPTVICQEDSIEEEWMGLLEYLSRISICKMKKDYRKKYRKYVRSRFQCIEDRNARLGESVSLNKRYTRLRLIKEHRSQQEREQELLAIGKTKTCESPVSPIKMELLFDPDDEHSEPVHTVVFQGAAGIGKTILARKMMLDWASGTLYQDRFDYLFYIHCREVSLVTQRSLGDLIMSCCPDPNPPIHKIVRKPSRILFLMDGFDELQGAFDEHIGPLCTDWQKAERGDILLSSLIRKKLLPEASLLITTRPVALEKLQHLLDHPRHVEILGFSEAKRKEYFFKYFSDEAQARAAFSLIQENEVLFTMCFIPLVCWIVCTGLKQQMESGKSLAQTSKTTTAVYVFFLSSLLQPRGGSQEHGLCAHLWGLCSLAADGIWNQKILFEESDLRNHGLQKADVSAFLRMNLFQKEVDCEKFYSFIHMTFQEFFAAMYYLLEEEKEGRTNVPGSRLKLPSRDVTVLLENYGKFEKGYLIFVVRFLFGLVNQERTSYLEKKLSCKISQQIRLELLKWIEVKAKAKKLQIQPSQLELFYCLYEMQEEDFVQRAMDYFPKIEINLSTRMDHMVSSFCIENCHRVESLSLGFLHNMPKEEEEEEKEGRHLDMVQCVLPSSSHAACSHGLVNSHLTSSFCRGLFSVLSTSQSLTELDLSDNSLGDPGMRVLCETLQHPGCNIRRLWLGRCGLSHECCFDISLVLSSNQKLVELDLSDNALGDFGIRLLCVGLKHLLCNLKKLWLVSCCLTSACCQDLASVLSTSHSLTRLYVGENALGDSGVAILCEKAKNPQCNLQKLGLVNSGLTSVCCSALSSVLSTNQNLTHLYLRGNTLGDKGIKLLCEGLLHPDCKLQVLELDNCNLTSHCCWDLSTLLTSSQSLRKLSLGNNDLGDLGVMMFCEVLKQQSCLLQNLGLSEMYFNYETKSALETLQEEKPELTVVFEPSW

Row | Structure (SMILES) | IC50
1 | CC(C)c1cccc(C(C)C)c1NC(=O)NS(=O)(=O)c1cc(C(=O)N2CCCC2)n(C)n1 [Example 63, N-((2,6-Diisopropylphenyl)carbamoyl)-1-methyl-5-(pyrrolidine-1-carbonyl)-1H-pyrazole-3-sulfonamide] | 0.64 to 2.56 µM
2 | CN(C(=O)c1cc(S(=O)(=O)NC(=O)Nc2c3c(cc4c2CCC4)CCC3)nn1C)C1COC1 [Example 17, 3-(N-((1,2,3,5,6,7-Hexahydro-s-indacen-4-yl)carbamoyl)sulfamoyl)-N,1-dimethyl-N-(oxetan-3-yl)-1H-pyrazole-5-carboxamide] | 0.64 to 2.56 µM
3 | CC(C)c1ccc(-c2cnn(C)c2)cc1NC(=O)NS(=O)(=O)c1cc(C(=O)N(C)C)n(C)n1 [Example 36, 3-(N-((2-Isopropyl-5-(1-methyl-1H-pyrazol-4-yl)phenyl)carbamoyl)sulfamoyl)-N,N,1-trimethyl-1H-pyrazole-5-carboxamide] | 0.64 to 2.56 µM
4 | Cn1nc(S(=O)(=O)NC(=O)Nc2c3c(cc4c2CCC4)CCC3)cc1C(=O)N1CC(F)C1 [Example 61, 5-(3-Fluoroazetidine-1-carbonyl)-N-((1,2,3,5,6,7-hexahydro-s-indacen-4-yl)carbamoyl)-1-methyl-1H-pyrazole-3-sulfonamide] | 0.64 to 2.56 µM
5 | CN(CC(O)CO)C(=O)c1cc(S(=O)(=O)NC(=O)Nc2c3c(cc4c2CCC4)CCC3)nn1C (stereo not drawn) [Example 19, N-(2,3-Dihydroxypropyl)-3-(N-((1,2,3,5,6,7-hexahydro-s-indacen-4-yl)carbamoyl)sulfamoyl)-N,1-dimethyl-1H-pyrazole-5-carboxamide] | 0.64 to 2.56 µM
6 | CC(C)c1cccc(C(C)C)c1NC(=O)NS(=O)(=O)c1cc(C(=O)N(C)CCO)n(C)n1 [Example 75, 3-(N-((2,6-Diisopropylphenyl)carbamoyl)sulfamoyl)-N-(2-hydroxyethyl)-N,1-dimethyl-1H-pyrazole-5-carboxamide] | 0.64 to 2.56 µM
7 | CC(C)NC(=O)c1cc(S(=O)(=O)NC(=O)Nc2c3c(cc4c2CCC4)CCC3)nn1C [Example 46, 3-(N-((1,2,3,5,6,7-Hexahydro-s-indacen-4-yl)carbamoyl)sulfamoyl)-N-isopropyl-1-methyl-1H-pyrazole-5-carboxamide] | 2.56 to 10 µM
8 | CN(C)CCN(C)C(=O)c1cc(S(=O)(=O)NC(=O)Nc2c3c(cc4c2CCC4)CCC3)nn1C [Example 10, N-(2-(Dimethylamino)ethyl)-3-(N-((1,2,3,5,6,7-hexahydro-s-indacen-4-yl)carbamoyl)sulfamoyl)-N,1-dimethyl-1H-pyrazole-5-carboxamide] | 0.64 to 2.56 µM
9 | CC(=O)N1CC(n2ccc(S(=O)(=O)NC(=O)Nc3c4c(cc5c3CCC5)CCC4)n2)C1 [Example 3, 1-(1-Acetylazetidin-3-yl)-N-((1,2,3,5,6,7-hexahydro-s-indacen-4-yl)carbamoyl)-1H-pyrazole-3-sulfonamide] | 0.64 to 2.56 µM
10 | Cn1nc(S(=O)(=O)NC(=O)Nc2c3c(cc4c2CCC4)CCC3)cc1C(=O)N1CCC(O)CC1 [Example 24, N-((1,2,3,5,6,7-Hexahydro-s-indacen-4-yl)carbamoyl)-5-(4-hydroxypiperidine-1-carbonyl)-1-methyl-1H-pyrazole-3-sulfonamide] | 2.56 to 10 µM
11 | CN(CCC#N)C(=O)c1cc(S(=O)(=O)NC(=O)Nc2c3c(cc4c2CCC4)CCC3)nn1C [Example 9, N-(2-Cyanoethyl)-3-(N-((1,2,3,5,6,7-hexahydro-s-indacen-4-yl)carbamoyl)sulfamoyl)-N,1-dimethyl-1H-pyrazole-5-carboxamide] | 0.16 to 0.64 µM
12 | CC(=O)N1CCC(n2ccc(S(=O)(=O)NC(=O)Nc3c4c(cc5c3CCC5)CCC4)n2)CC1 [Example 5, 1-(1-Acetylpiperidin-4-yl)-N-((1,2,3,5,6,7-hexahydro-s-indacen-4-yl)carbamoyl)-1H-pyrazole-3-sulfonamide] | 2.56 to 10 µM
13 | CC(C)c1cccc(C(C)C)c1NC(=O)NS(=O)(=O)c1cc(C(=O)N(C)CC#N)n(C)n1 [Example 40, N-(Cyanomethyl)-3-(N-((2,6-diisopropylphenyl)carbamoyl)sulfamoyl)-N,1-dimethyl-1H-pyrazole-5-carboxamide] | 2.56 to 10 µM
14 | Cn1nc(S(=O)(=O)NC(=O)Nc2c3c(cc4c2CCC4)CCC3)cc1C(=O)NCCO [Example 76, 3-(N-((1,2,3,5,6,7-Hexahydro-s-indacen-4-yl)carbamoyl)sulfamoyl)-N-(2-hydroxyethyl)-1-methyl-1H-pyrazole-5-carboxamide] | 2.56 to 10 µM
15 | COC1CCN(C(=O)c2cc(S(=O)(=O)NC(=O)Nc3c4c(cc5c3CCC5)CCC4)nn2C)C1 (stereo not drawn) [Example 25, N-((1,2,3,5,6,7-Hexahydro-s-indacen-4-yl)carbamoyl)-5-(3-methoxypyrrolidine-1-carbonyl)-1-methyl-1H-pyrazole-3-sulfonamide] | 2.56 to 10 µM
16 | CCN(CC)C(=O)c1cc(S(=O)(=O)NC(=O)Nc2c(C(C)C)cccc2C(C)C)nn1C [Example 57, 3-(N-((2,6-Diisopropylphenyl)carbamoyl)sulfamoyl)-N,N-diethyl-1-methyl-1H-pyrazole-5-carboxamide] | 0.64 to 2.56 µM
17 | CN(C)CCCN(C)C(=O)c1cc(S(=O)(=O)NC(=O)Nc2c3c(cc4c2CCC4)CCC3)nn1C [Example 6, N-(3-(Dimethylamino)propyl)-3-(N-((1,2,3,5,6,7-hexahydro-s-indacen-4-yl)carbamoyl)sulfamoyl)-N,1-dimethyl-1H-pyrazole-5-carboxamide] | 2.56 to 10 µM
18 | CC(C)c1cc(F)cc(C(C)C)c1NC(=O)NS(=O)(=O)c1cc(C(=O)N2CCC2)n(C(C)C)n1 [Example 30, 5-(Azetidine-1-carbonyl)-N-((4-fluoro-2,6-diisopropylphenyl)carbamoyl)-1-isopropyl-1H-pyrazole-3-sulfonamide] | 0.16 to 0.64 µM
19 | CC(C)c1cccc(C(C)C)c1NC(=O)NS(=O)(=O)c1cc(C(=O)N(C)C2CCC2)n(C)n1 [Example 8, N-Cyclobutyl-3-(N-((2,6-diisopropylphenyl)carbamoyl)sulfamoyl)-N,1-dimethyl-1H-pyrazole-5-carboxamide] | 0.64 to 2.56 µM
20 | Cn1nc(S(=O)(=O)NC(=O)Nc2c3c(cc4c2CCC4)CCC3)cc1C(=O)N1CCOCC1 [Example 28, N-((1,2,3,5,6,7-Hexahydro-s-indacen-4-yl)carbamoyl)-1-methyl-5-(morpholine-4-carbonyl)-1H-pyrazole-3-sulfonamide] | 0.64 to 2.56 µM
21 | CN(C(=O)c1cc(S(=O)(=O)NC(=O)Nc2c3c(cc4c2CCC4)CCC3)nn1C)C1CCOCC1 [Example 14, 3-(N-((1,2,3,5,6,7-Hexahydro-s-indacen-4-yl)carbamoyl)sulfamoyl)-N,1-dimethyl-N-(tetrahydro-2H-pyran-4-yl)-1H-pyrazole-5-carboxamide] | 2.56 to 10 µM
